According to ChEMBL document CHEMBL1201862, “PubChem BioAssay data set” (2004):
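Growth conditions: 96-well plates. Treatment: test compound, 48 hours, 5 concentrations. Analysis: linear interpolation between bracketing concentrations; unreached endpoints set to highest concentration. GI50 marks 50% less growth.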 Activity calls are given as the source filed them. Cut-off read from the data, not from the text of the source: active = GI50 up to about 1.1 µM and inactive = higher.

Tests used:
Assay in all cases: inhibition of tumour cell growth, NCI panel, 48 h
[1] = tested on: OVCAR-8
[2] = tested on: SW-620
[3] = tested on: U-251
[4] = tested on: OVCAR-3
[5] = tested on: OVCAR-5
[6] = tested on: COLO 205
[7] = tested on: UACC-257
[8] = tested on: HOP-62
[9] = tested on: TK-10
[10] = tested on: ACHN
[11] = tested on: SR
[12] = tested on: NCI-H522
[13] = tested on: SF-295
[14] = tested on: SNB-19
[15] = tested on: UO-31
[16] = tested on: OVCAR-4
[17] = tested on: EKVX

Row | SMILES | GI50 [1] | GI50 [2] | GI50 [3] | GI50 [4] | GI50 [5] | GI50 [6] | GI50 [7] | GI50 [8] | GI50 [9] | GI50 [10] | GI50 [11] | GI50 [12] | GI50 [13] | GI50 [14] | GI50 [15] | GI50 [16] | GI50 [17]
1 | CCOC(=O)NC(=O)c1cn(CCCCCCCCCCC(=O)NCCCN2CCN(CCCNC(=O)CCCCCCCCCCn3cc(C(=O)NC(=O)OCC)c(=O)[nH]c3=O)CC2)c(=O)[nH]c1=O | > 100 µM (inactive) | > 100 µM (inactive) | > 100 µM (inactive) | > 10 µM (inactive) | > 100 µM (inactive) | > 100 µM (inactive) | > 100 µM (inactive) | > 10 µM (inactive) | > 100 µM (inactive) | > 100 µM (inactive) | > 100 µM (inactive) | > 10 µM (inactive) | > 100 µM (inactive) | > 100 µM (inactive) | > 100 µM (inactive) | – | –
2 | CCCCCCCCCC(=O)CC(=O)c1c(O)cccc1O | 38 µM (inactive) | 28.8 µM (inactive) | 24.9 µM (inactive) | 29.2 µM (inactive) | 22.9 µM (inactive) | 18.7 µM (inactive) | 38.2 µM (inactive) | 85.7 µM (inactive) | 41.8 µM (inactive) | 27.4 µM (inactive) | – | 27.8 µM (inactive) | 34.1 µM (inactive) | 53.1 µM (inactive) | 35.1 µM (inactive) | 49.7 µM (inactive) | 29.2 µM (inactive)
3 | CC1=C(/C=C/C(C)=C/C2CC(N(C)C)=CC(=O)O2)C(C)(C)CCC1 (stereo not drawn) | 15.5 µM (inactive) | 16.2 µM (inactive) | 14.6 µM (inactive) | 11.5 µM (inactive) | 11.6 µM (inactive) | 14.1 µM (inactive) | 11.9 µM (inactive) | 16.9 µM (inactive) | 14.1 µM (inactive) | 12.1 µM (inactive) | 8.09 µM (inactive) | > 10 µM (inactive) | 13 µM (inactive) | 15.2 µM (inactive) | 10.7 µM (inactive) | 16 µM (inactive) | 14.4 µM (inactive)
4 | COc1ccc(C(O)c2cc(OC)c(OC)c(OC)c2)cc1 (stereo not drawn) | 30.3 µM (inactive) | 6.85 µM (inactive) | 34 µM (inactive) | 18.5 µM (inactive) | > 100 µM (inactive) | 8.73 µM (inactive) | 38.2 µM (inactive) | 26.3 µM (inactive) | 31.3 µM (inactive) | 69.8 µM (inactive) | – | 11.6 µM (inactive) | 6.44 µM (inactive) | 42.4 µM (inactive) | 30.6 µM (inactive) | 31.8 µM (inactive) | 43.9 µM (inactive)
5 | c1cc(C2O[C@H]3CCCN3[C@@H]2c2ccncc2)ccn1 (stereo partly drawn) | > 100 µM (inactive) | > 100 µM (inactive) | > 100 µM (inactive) | > 100 µM (inactive) | > 100 µM (inactive) | > 100 µM (inactive) | > 100 µM (inactive) | > 100 µM (inactive) | > 100 µM (inactive) | > 100 µM (inactive) | – | > 100 µM (inactive) | > 100 µM (inactive) | > 100 µM (inactive) | > 100 µM (inactive) | > 100 µM (inactive) | > 100 µM (inactive)
6 | COc1cc([C@@H]2c3cc4c(c(O)c3C[C@H]3COC(=O)[C@@H]32)OCO4)cc(OC)c1O | 0.0249 µM (active) | < 0.02 µM (active) | – | – | 29.2 µM (inactive) | 0.0281 µM (active) | < 0.02 µM (active) | < 0.02 µM (active) | 0.00762 µM (active) | 0.00631 µM (active) | 0.00307 µM (active) | – | < 0.02 µM (active) | 0.796 µM (active) | < 0.02 µM (active) | – | 0.0351 µM (active)
7 | CCOC(=O)C(C)c1cc(C2(C)OCCO2)c(C)o1 (stereo not drawn) | > 100 µM (inactive) | > 100 µM (inactive) | > 100 µM (inactive) | > 100 µM (inactive) | > 100 µM (inactive) | > 100 µM (inactive) | – | > 100 µM (inactive) | > 100 µM (inactive) | > 100 µM (inactive) | – | – | > 100 µM (inactive) | > 100 µM (inactive) | > 100 µM (inactive) | > 100 µM (inactive) | > 100 µM (inactive)
8 | CNC(=S)/N=C(\N)N(C)C | > 100 µM (inactive) | > 100 µM (inactive) | > 100 µM (inactive) | > 100 µM (inactive) | – | > 100 µM (inactive) | > 10 µM (inactive) | > 100 µM (inactive) | > 100 µM (inactive) | > 100 µM (inactive) | > 100 µM (inactive) | > 100 µM (inactive) | > 100 µM (inactive) | > 100 µM (inactive) | > 100 µM (inactive) | > 10 µM (inactive) | > 100 µM (inactive)
